Data as given in ChEMBL document CHEMBL1201862, “PubChem BioAssay data set” (2004).
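Exposure lasted 48 hours, with cells grown in 96-well plates and compounds tested at five concentrations. GI50: concentration for 50% inhibition of growth.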 The source made the active and inactive calls. No stated cut-off is given here; in the data, active = GI50 up to about 1.1 µM and inactive = higher.

Assays:
Test in all cases: NCI anticancer screen, dose series, 48 h
[1] = system: BT-549
[2] = system: HCC 2998
[3] = system: HCT-116
[4] = system: HL-60
[5] = system: HOP-62
[6] = system: HT-29
[7] = system: K562
[8] = system: MDA-MB-231
[9] = system: MOLT-4
[10] = system: NCI-H226
[11] = system: NCI-H23
[12] = system: NCI-H460
[13] = system: NCI-H522
[14] = system: OVCAR-3
[15] = system: OVCAR-8
[16] = system: SF-295
[17] = system: SK-MEL-5
[18] = system: T47D
[19] = system: TK-10

Structure (SMILES)	GI50 [1]	GI50 [2]	GI50 [3]	GI50 [4]	GI50 [5]	GI50 [6]	GI50 [7]	GI50 [8]	GI50 [9]	GI50 [10]	GI50 [11]	GI50 [12]	GI50 [13]	GI50 [14]	GI50 [15]	GI50 [16]	GI50 [17]	GI50 [18]	GI50 [19]
CN(C1=NS(=O)(=O)N=C(N(C)c2ccccc2)O1)c1ccccc1	8.38 µM (inactive)	20.7 µM (inactive)	13.7 µM (inactive)	13.6 µM (inactive)	22.9 µM (inactive)	22.9 µM (inactive)	17.7 µM (inactive)	17.6 µM (inactive)	27.4 µM (inactive)	14.9 µM (inactive)	11.5 µM (inactive)	21.8 µM (inactive)	18.5 µM (inactive)	20.3 µM (inactive)	17.4 µM (inactive)	21.8 µM (inactive)	7.66 µM (inactive)	21.2 µM (inactive)	35.1 µM (inactive)
CC(C)OC(=O)c1cc(NC(=S)OC(C)C)ccc1Cl	18.2 µM (inactive)	> 41.6 µM (inactive)	20.8 µM (inactive)	16.3 µM (inactive)	90.4 µM (inactive)	16.5 µM (inactive)	30.4 µM (inactive)	15.3 µM (inactive)	11.9 µM (inactive)	18.3 µM (inactive)	20.5 µM (inactive)	> 39 µM (inactive)	13.2 µM (inactive)	25.6 µM (inactive)	26.4 µM (inactive)	18.5 µM (inactive)	17.3 µM (inactive)	23 µM (inactive)	22.8 µM (inactive)
O=C(c1cccc(OCc2ccccc2)c1OCc1ccccc1)N1CCSC1=S	29.5 µM (inactive)	28 µM (inactive)	21.4 µM (inactive)	5.92 µM (inactive)	27.2 µM (inactive)	25.2 µM (inactive)	9.35 µM (inactive)	19.8 µM (inactive)	12.6 µM (inactive)	23.8 µM (inactive)	19.1 µM (inactive)	28 µM (inactive)	12.3 µM (inactive)	21.1 µM (inactive)	21.8 µM (inactive)	30 µM (inactive)	14 µM (inactive)	5.66 µM (inactive)	56.5 µM (inactive)
N=c1ccn2c(n1)OC1C(OP(=O)(O)O)C(CO)OC12 (stereo not drawn)	> 100 µM (inactive)	11 µM (inactive)	2.06 µM (inactive)	0.597 µM (active)	1.21 µM (inactive)	10.5 µM (inactive)	> 80 µM (inactive)	> 100 µM (inactive)	0.147 µM (active)	> 100 µM (inactive)	6.93 µM (inactive)	0.53 µM (active)	> 80.4 µM (inactive)	> 71.3 µM (inactive)	5.45 µM (inactive)	38.1 µM (inactive)	55.1 µM (inactive)	> 100 µM (inactive)	> 100 µM (inactive)
O=C(/C=C\c1ccc([N+](=O)[O-])cc1)c1ccccc(=O)c1O	1.72 µM (inactive)	1.29 µM (inactive)	0.659 µM (active)	0.538 µM (active)	1.88 µM (inactive)	1.04 µM (active)	0.92 µM (active)	3.37 µM (inactive)	0.721 µM (active)	1.65 µM (inactive)	2.33 µM (inactive)	0.518 µM (active)	1.39 µM (inactive)	2.49 µM (inactive)	0.9 µM (active)	1.42 µM (inactive)	0.558 µM (active)	2.67 µM (inactive)	2.49 µM (inactive)
COc1ccc(N2C(=O)C3c4[nH]c5ccccc5c4C4CCC(C(C)(C)C)CC4C3C2=O)c(C)c1 (stereo not drawn)	> 100 µM (inactive)	> 100 µM (inactive)	> 100 µM (inactive)	> 100 µM (inactive)	> 100 µM (inactive)	> 100 µM (inactive)	> 100 µM (inactive)	> 100 µM (inactive)	> 100 µM (inactive)	> 100 µM (inactive)	> 100 µM (inactive)	> 100 µM (inactive)	> 100 µM (inactive)	> 100 µM (inactive)	> 100 µM (inactive)	> 100 µM (inactive)	> 100 µM (inactive)	> 100 µM (inactive)	> 100 µM (inactive)
O=S(=O)(NNc1ccccc1)c1ccccc1	19.2 µM (inactive)	0.902 µM (active)	13.2 µM (inactive)	1.66 µM (inactive)	12.4 µM (inactive)	11.5 µM (inactive)	4.23 µM (inactive)	1.36 µM (inactive)	26.5 µM (inactive)	4.12 µM (inactive)	25.5 µM (inactive)	3.96 µM (inactive)	8.95 µM (inactive)	11.3 µM (inactive)	28.5 µM (inactive)	0.646 µM (active)	2.1 µM (inactive)	12.6 µM (inactive)	> 100 µM (inactive)
